{"source": "paper PMC8333425", "about": "“Discovery of a dual Ras and ARF6 inhibitor from a GPCR endocytosis screen” (Nature Communications, 2021)", "test_system": "Rho", "experiment": "Rho BRET sensor (PKN-RBD-RlucII / rGFP-CAAX; Gα12/13), AT1R-mediated", "type": "cell-based, human", "procedure": "HEK293SL cells were seeded at a density of 7.5 × 10^5 cells per 100-mm dish and 24 h later, transiently transfected as such. For receptor internalization experiments, cells were transfected with 0.12 μg AT1R-RlucII, B2R-RlucII, or β2AR-RlucII and 0.48 μg of either rGFP-CAAX (to assess removal from the PM) or rGFP-FYVE (to assess accumulation in the endosomes). For β-arrestin recruitment assays, cells were transfected with 0.48 μg of receptor-YFP along with 0.12 μg of β-arrestin-RlucII. For β-arrestin/AP-2 binding experiments, cells were transfected with 1 μg Flag-AT1R, 1 μg β2-Adaptin-YFP, and 0.12 μg β-arrestin2-RlucII. For G protein activation, cells were transfected with 3 μg of sp-Flag-AT1R along with either 4.5 μg of the Gαq-polycistronic BRET sensor or 0.24 μg of the Gαi3-RlucII and 0.6 μg of GFP10-Gγ2 and Gβ1 sensors or 0.12 μg PKN-RBD-RlucII and 0.48 μg of rGFP-CAAX. For PKC activation, cells were transfected with 3 μg of sp-Flag-AT1R and 0.18 μg of the PKC sensor. For GTPase activation experiments, cells were transfected with 1 μg Flag-AT1R, 0.48 μg of rGFP-CAAX, and either 0.12 μg of GGA3-PBD-RlucII, PAK-CRIB-RlucII or Raf-RBD-RlucII. For biosensor validation experiments, cells were additionally transfected with 500 ng Flag-K-Ras-WT, Flag-K-Ras-G12V, Flag-K-Ras-SOS-CAAX, HA-ARF6-WT, HA-ARF6-T27N, Myc-Rac1-WT, Myc-Rac1-Q61L or Myc-Rac1-T17N. For PI3K/Akt activation experiments, cells were transfected with 0.48 μg of rGFP-CAAX and 0.12 μg of Akt (PH)-RlucII. After 18 h of transfection, the media was replaced and cells were divided for subsequent experiments. Cells were detached and seeded onto poly-L-ornithine-coated 96-well flat white bottom plates (BrandTech Scientific) at a density of 2.5 × 10^4 cells per well in media. The next day, cells were washed once with Tyrode’s buffer (140 mM NaCl, 2.7 mM KCl, 1 mM CaCl2, 12 mM NaHCO3, 5.6 mM D-glucose, 0.5 mM MgCl2, 0.37 mM NaH2PO4, 25 mM HEPES, pH 7.4) and left in Tyrode’s buffer. For kinetics of β-arrestin recruitment or β-arrestin binding to receptor and AP-2 experiments, cells were serum starved for 30 min, pretreated with 21 (50 µM) or Barbadin (100 µM) for 30 min, stimulated with 100 nM AngII or 1 µM BK and BRET signals were monitored at indicated times using a Victor X Light plate reader (PerkinElmer). Coelenterazine H (final concentration of 5 µM) was added 3–5 min prior to BRET measurements. Filter set was 460/80 nm and 535/30 nm for detecting the RlucII Renilla luciferase (donor) and YFP (acceptor) light emissions, respectively. The BRET ratio was determined by calculating the ratio of the light emitted by YFP over the light emitted by the RlucII. For G protein activation, cells were serum starved, pretreated with compounds for 30 min, stimulated with 100 nM AngII for 2 min (Gαq, Gαi3, and Rho sensors) or 5 min (PKC sensor). For the kinetics of GTPase and PI3K/Akt activation, cells were serum starved, pretreated with 21 (50 µM) or Wortmannin (200 nM) for 30 min, stimulated with ligand (100 nM AngII or 100 ng/ml EGF) and BRET signals were monitored at indicated times. For concentration-response curves, cells were serum-starved, pretreated with various concentrations of compounds for 30 min and stimulated with ligand (100 nM AngII, 1 µM BK, 10 µM Isoproterenol (Iso) or 100 ng/ml EGF) in Tyrode’s buffer for 30 min for receptor internalization, 10 min for ARF6, 2 min for Rac and Rho activation and 5 min for Ras activation and PI3K/Akt activation. BRET signals were monitored using a Synergy2 (BioTek) microplate reader and coelenterazine 400a (final concentrations of 5 µM) added 3–5 min prior to BRET measurements. Filter set was 410/80 nm and 515/30 nm for detecting the RlucII Renilla luciferase (donor) and rGFP/GFP10 (acceptor) light emissions, respectively. The BRET ratio was determined by calculating the ratio of the light emitted by rGFP/GFP10 over the light emitted by the RlucII.", "note": "Values joined by “and” are separate entries in the source; they are usually repeats but may differ in a detail not shown here. Identical values can stand only once."}
{"smiles": "CC(C)C(=O)N1CCN(c2ccc(NC(=O)c3cc4ccccc4o3)cc2Cl)CC1", "note": "[Compound 21]", "values": [{"measurement": "Gα12/13 engagement by AT1R (BRET sensor)", "setting": "50 μM", "result": "lack of inhibitory effects"}, {"measurement": "Rho MEAN (Fig.4d)", "setting": "Log [Comp 21] (M) -4", "result": 111.903}, {"measurement": "Rho MEAN (Fig.4d)", "setting": "Log [Comp21] (M) -4.3", "result": 104.855}, {"measurement": "Rho MEAN (Fig.4d)", "setting": "Log [Comp21] (M) -5", "result": 98.5192}, {"measurement": "Rho MEAN (Fig.4d)", "setting": "Log [Comp21] (M) -5.3", "result": 89.4095}, {"measurement": "Rho MEAN (Fig.4d)", "setting": "Log [Comp 21] (M) -6", "result": 96.851}, {"measurement": "Rho MEAN (Fig.4d)", "setting": "Log [Comp21] (M) -6.3", "result": 103.786}, {"measurement": "Rho MEAN (Fig.4d)", "setting": "Log [Comp 21] (M) -7", "result": 100.394}, {"measurement": "Rho BRET sensor signal (S_Fig.4b), single experiments", "setting": "listed as Comp 21", "result": "0.2652 and 0.266 and 0.2953"}, {"measurement": "AT1R-mediated activation of a Rho BRET sensor", "setting": "up to 100 µM of 21", "result": "did not inhibit"}]}
